From PubChem BioAssay (NCI)
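48-hour exposure; five concentrations; linearly interpolated endpoints. TGI: concentration producing complete growth inhibition.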

Assays:
Experiment in all cases: growth of human tumour cells (NCI), 48 h
SNB-19 CNS = test system: SNB-19 CNS
RXF 393 renal = test system: RXF 393 renal
UACC-62 melanoma = test system: UACC-62 melanoma
SF-539 CNS = test system: SF-539 CNS
HCC-2998 colon = test system: HCC-2998 colon
SK-MEL-28 melanoma = test system: SK-MEL-28 melanoma
NCI-H226 lung = test system: NCI-H226 lung
CCRF-CEM leukemia = test system: CCRF-CEM leukemia
SK-MEL-5 melanoma = test system: SK-MEL-5 melanoma
SF-268 CNS = test system: SF-268 CNS
OVCAR-5 ovarian = test system: OVCAR-5 ovarian
IGROV1 ovarian = test system: IGROV1 ovarian
SK-MEL-2 melanoma = test system: SK-MEL-2 melanoma
NCI-H23 lung = test system: NCI-H23 lung
OVCAR-3 ovarian = test system: OVCAR-3 ovarian
DU-145 prostate = test system: DU-145 prostate
T-47D breast = test system: T-47D breast
MDA-MB-435 = test system: MDA-MB-435
HOP-92 NSCLC = test system: HOP-92 NSCLC

| Compound | TGI (SNB-19 CNS) [µM] | TGI (RXF 393 renal) [µM] | TGI (UACC-62 melanoma) [µM] | TGI (SF-539 CNS) [µM] | TGI (HCC-2998 colon) [µM] | TGI (SK-MEL-28 melanoma) [µM] | TGI (NCI-H226 lung) [µM] | TGI (CCRF-CEM leukemia) [µM] | TGI (SK-MEL-5 melanoma) [µM] | TGI (SF-268 CNS) [µM] | TGI (OVCAR-5 ovarian) [µM] | TGI (IGROV1 ovarian) [µM] | TGI (SK-MEL-2 melanoma) [µM] | TGI (NCI-H23 lung) [µM] | TGI (OVCAR-3 ovarian) [µM] | TGI (DU-145 prostate) [µM] | TGI (T-47D breast) [µM] | TGI (MDA-MB-435) [µM] | TGI (HOP-92 NSCLC) [µM] |
| --- | --- | --- | --- | --- | --- | --- | --- | --- | --- | --- | --- | --- | --- | --- | --- | --- | --- | --- | --- |
| C/C(=N/NC(N)=S)C(CN(C)C)C(C1=C(O)c2ccccc2OC1)c1ccccc1 (centres undefined) | > 100 | > 100 | > 100 | > 100 | > 100 | > 100 | > 100 | > 100 | > 100 | > 100 | > 100 | > 100 | > 100 | > 100 | > 100 |  |  |  |  |
| O=C(O)C1=NN(c2ccc(S(=O)(=O)O)cc2)C2(C1)SCC(=O)N2c1nc2ccccc2s1 (centres undefined) | > 100 | > 100 | > 100 | > 100 | > 100 | > 100 | > 100 | > 100 | > 100 | > 100 | > 100 | > 100 | > 100 | > 100 | > 100 | > 100 | > 100 | > 100 | > 100 |
| COc1ccc2c(c1)OC(c1ccccc1O)CC2=O (centres undefined) | > 100 |  |  | > 100 | > 100 | > 100 |  | > 100 | > 100 | > 100 | > 100 |  | 77.5 | > 100 | 96.8 |  |  |  |  |
| COCN1C(=O)[C@@H]2CCCN2C(=O)c2ccc([N+](=O)[O-])cc21 | > 100 | > 100 | > 100 | > 100 | > 100 | > 100 | > 100 | > 100 | > 100 | > 100 | > 100 | > 100 | > 100 | > 100 | > 100 | > 100 | > 100 | > 100 | > 100 |
| COc1ccc(C2S/C(=C\c3ccccc3)C(=O)N2NC(=O)Cc2ccccc2)cc1 (centres undefined) |  | > 100 | > 100 | > 100 |  | > 100 | > 100 | > 100 | > 100 | > 100 | > 100 | > 100 | > 100 | > 100 |  |  |  |  | > 100 |
| O=C(N/N=C(\c1nc2ccc(Cl)cc2[nH]c1=O)C(O)c1ccccc1Cl)c1ccncc1 (centres undefined) | > 100 | > 100 | > 100 | > 100 | > 100 | > 100 | > 100 | > 100 | > 100 | > 100 | > 100 | > 100 | > 100 | > 100 | > 100 |  |  |  | > 100 |
| CC(C)C1COC(c2ccc3ccccc3c2-c2c(O[Si](C)(C)C(C)(C)C)ccc3ccccc23)=N1 (centres undefined) | 29.2 | 34.7 | 30.9 | 32.4 | 28.9 | 33.8 | 26.4 | 35.5 | 31.8 | 34.7 | 32.6 | 35.4 | 30.4 | 30.7 | 31.5 |  |  |  | 26.6 |
